Converted amounts (≈) assume the structure as drawn. “Also recorded” adds a separate entry of the source.
Assays:
[1] = test system: Plasmodium falciparum malaria; settings: P. falciparum malaria, South East Asia; WR030090: field trials; cited from earlier work
[2] = test system: P. falciparum D6; assay: In vitro antimalarial activity against P. falciparum D6; assay type: cell-based, Plasmodium falciparum; settings: FIG. 5
Protocol: (§1) The in vitro activities of AAQMs against P. falciparum strains W2, D6, TM91C235 and TM90C2A were evaluated using the method of Desjardins et al. as modified by Milhous et al. W2 is chloroquine resistant and mefloquine sensitive, D6 is chloroquine sensitive but naturally less susceptible to mefloquine, TM91C235 is resistant to mefloquine, chloroquine and pyrimethamine as is TM90C2A, however this latter parasite is a two pfmdr1 copy strain. We routinely run mefloquine in this screen as a control to ensure assay validity.
(§2) The combined effects of azithromycin (as represented by compound 196 on the horizontal axes of FIG. 4 through 6) and WR074086 (as represented by compound 14885 on vertical axes of FIGS. 4 through 6) against three strains of P. falciparum were investigated using isobologram analysis. First, the IC50s of each compound were determined as described above.

[3] = test system: P. falciparum D6; assay: Isobologram analysis azithromycin and WR074086, P. falciparum D6; assay type: cell-based, Plasmodium falciparum; settings: for FIC (IC50 in combination/IC50 alone): Line C FIG. 5: starting azithromycin 12500 ng/ml, WR074086 5 ng/ml
Protocol: as §2
(§3) Next, IC50s were determined with different fractional starting concentrations of each compound. For example in line C of FIG. 5, the starting concentration of azithromycin was 12500 ng/ml whereas the starting concentration of WR074086 was 5 ng/ml. Each of these starting concentrations is half of that used when each compound was tested alone. […] In the data tables, lines D-H represent other combinations of starting concentrations of each compound.
(§4) For each pair of starting concentrations for each drug, fractional inhibitory concentrations were determined using the following formula: FIC=IC50 in combination/IC50 alone.
The FICs for the eight tests are plotted as indicated in FIG. 4 through FIG. 6 for each of three P. falciparum strains. Graphs of this type are called isobolograms and additivity is represented by an overall FIC SUM of 1, as represented by the straight line joining the two axes. A potentiative effect is represented by a concave curve below the straight line, since IC50s in combination are lower than expected. Antagonism is represented by a convex curve above the straight line, since IC50s in combination are higher than expected.

[4] = test system: FVO strain of P. falciparum; assay: Efficacy in P. falciparum-challenged Aotus monkeys; assay type: in vivo, Plasmodium falciparum in Aotus lemurinus lemurinus; settings: 10 mg/kg/day x7 oral; groups of two; Cure = parasite free 90 days; R = average day of recrudescence; Failure = rescued with mefloquine
Protocol: (§5) The P. berghei-mouse efficacy data were obtained from the WRAIR chemical information system (subcutaneous testing) or from recent tests conducted at AFRIMS, Thailand or at the University of Miami using a modified version of the Thompson test. Groups of five mice were inoculated through i.p. injection on day 0 (usually with 1×106 P. berghei-parasitized erythrocytes). The drugs in Table 1 were administered either subcutaneously or orally for three days (usually on days 3-5) at doses of 1.25-160 mg/kg in two to four fold increments. Cure was defined as survival until day 60 (subcutaneous dosing) or day 31 post-treatment (oral dosing). […] The minimum effective dose was the lowest dose level that cured at least one of five mice. The Aotus studies were performed according to Obaldia; Detection of Klebsiella pnuumoniae antibodies in Aotus l. lemurinus (Panamanian owl monkey) using an enzyme linked immunosorbent assay (ELIA) test; Lab Anim (25)133-141 (1991) and Obaldia et al., WR 238605, chloroquine, and their combinations as blood schizonticides against a chloroquine-resistant strain of Plasmodium vivax in Aotus monkeys; Am. J. Trop. Med. Hyg. (56)508-510 (1997), which are incorporated by reference, herein. Groups of two Aotus lemurinus 6 lemurinus of the karyotype VIII or IX (27) male and female monkeys with weights ranging from 742-970 g were inoculated with 5×10^6 parasites of either the FVO strain of P. falciparum or the AMRU1 strain of P. vivax. Both of these strains are chloroquine resistant. […] Monkeys were examined and thick Giemsa-stained blood smears were prepared and enumerated daily (17) to monitor the course of infection. […] In some instances, a high dose of the test drug was used to retreat monkeys instead of the mefloquine rescue. Monkeys are considered cured if they are parasite free 90 days post treatment. […] Plasma samples were taken from the monkeys in some studies for quantification of metabolites. Additional blood samples were taken as appropriate for complete blood counts and serum chemistry. Research was conducted in compliance with the Animal Welfare Act and other federal statutes and regulations relating to animals and experiments involving animals and adheres to principles stated in the Guide for the Care and Use of Laboratory Animals, NRC Publication, 1996 edition (34).

[5] = Aotus, 10 mg/kg/day oral x7
Protocol: as §5

[6] = test system: P. falciparum TM91C235; assay: In vitro antimalarial activity against P. falciparum TM91C235; assay type: cell-based, Plasmodium falciparum
Protocol: as §1

[7] = test system: P. falciparum D6, W2 and TM91C235; assay: Isobologram analysis azithromycin and WR074086, P. falciparum D6, W2 and TM91C235; assay type: cell-based, Plasmodium falciparum; settings: WR074086 combined with azithromycin; in many instances; FIGS. 4-6
Protocol: as §2, §3, §4
The FICs for the eight tests are plotted as indicated in FIG. 4 through FIG. 6 for each of three P. falciparum strains. Graphs of this type are called isobolograms and additivity is represented by an overall FIC SUM of 1, as represented by the straight line joining the two axes. A potentiative effect is represented by a concave curve below the straight line, since IC50s in combination are lower than expected. […]

Compound: C=C[C@H]1C[N@@]2CC[C@H]1C[C@H]2[C@H](O)c1ccnc2ccc(OC)cc12 [quinine]
- Cure rate [1]: 26-50%

Compound: CCN(CC)CCCC(C)Nc1ccnc2cc(Cl)ccc12 (stereo not shown) [chloroquine]
- Cure rate [1]: 11-20%

Compound: CC[C@H]1OC(=O)[C@H](C)[C@@H](O[C@H]2C[C@@](C)(OC)[C@@H](O)[C@H](C)O2)[C@H](C)[C@@H](O[C@@H]2O[C@H](C)C[C@H](N(C)C)[C@H]2O)[C@](C)(O)C[C@@H](C)CN(C)[C@H](C)[C@@H](O)[C@]1(C)O [azithromycin, reference compound]
- IC50 ([2]; Plasmodium falciparum, D6, read-out: IC50 against P. falciparum D6, compound alone): 7230 ng/mL (≈ 9.66 µM)
- FIC (IC50 in combination/IC50 alone) [3]: 0.249

Compound: CCCCN(CCCC)CC(O)c1cc(-c2ccc(F)cc2)nc2c(Cl)cc(Cl)cc12 (stereo not shown) [WR074086]
- IC50 against P. falciparum D6, compound alone [2]: 1.8086 ng/mL (≈ 0.0039 µM)
- Outcome in Aotus [4]: cleared parasitemias, but recrudescence was subsequently observed; also recorded: Clear (R25)
- Mean peak concentration [5]: 129 ng/mL
- Plasma conc on day 1 (ng/ml) 2 h ([5]; day 1, 2 h): 179 ng/mL
- Plasma conc on day 1 (ng/ml) 24 h ([5]; day 1, 24 h): 4.0 ng/mL
- Plasma conc. on day 7 (ng/ml) 2 h ([5]; day 7, 2 h): 78 ng/mL
- Plasma conc. on day 7 (ng/ml) 24 h ([5]; day 7, 24 h): 78 ng/mL
- FIC (IC50 in combination/IC50 alone) [3]: 0.399
- FIC sum ([3]; azithromycin + WR074086, Line C FIG. 5): 0.648
- Activity against P. falciparum TM91C235 (IC50 in ng/ml) [6]: 3.4 ng/mL
- TM91C235 IC90 ([6]; Table 2): 7.0 ng/mL
- Minimum fractional inhibitory concentration (FIC) [7]: < 0.5

Source: patent publication US20110092488A1, “Quninoline Methanol Compounds for the Treatment and Prevention of Parasitic Infections” (priority 2005, published 2011)
